Reference: patent publication US5015639A, “Substituted benzazepines, their preparation and pharmaceutical compositions containing them” (Schering Corporation, priority 1989, dated 1991)
Like-named read-outs stand apart in the source and are kept apart here.

Legend:
[1] = target: T1, dopamine D-1 receptor (Rattus norvegicus, UniProt P18901); experiment: Competitive inhibition assay vs. 3H-SCH 23390 (dopamine D-1 receptor binding); parameters: species or system Male Sprague-Dawley rat (striatal tissue)
T1 construct: Striatal tissue was excised, pooled, and homogenized; tissue Charles River Breeding Laboratories, Mass; (animals); host or cells: striatum of male Sprague-Dawley rats, washed membrane pellet
T1 sequence (P18901 whole entry): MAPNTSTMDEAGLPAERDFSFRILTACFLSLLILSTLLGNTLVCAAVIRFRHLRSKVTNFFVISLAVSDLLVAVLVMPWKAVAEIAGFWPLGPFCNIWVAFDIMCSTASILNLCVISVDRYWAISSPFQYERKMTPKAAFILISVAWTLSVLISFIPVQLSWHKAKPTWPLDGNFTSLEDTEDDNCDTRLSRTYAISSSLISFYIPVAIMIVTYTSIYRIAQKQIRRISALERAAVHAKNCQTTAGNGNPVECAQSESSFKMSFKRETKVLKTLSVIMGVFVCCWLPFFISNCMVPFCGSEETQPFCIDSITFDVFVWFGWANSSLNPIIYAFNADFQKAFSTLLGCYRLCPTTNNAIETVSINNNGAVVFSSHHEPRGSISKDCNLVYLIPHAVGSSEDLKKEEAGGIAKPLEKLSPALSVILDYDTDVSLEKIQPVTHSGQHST
Protocol: (§1) Many compounds capable of effecting reproducible physiological changes in neural tissues are believed to operate by binding at one or more receptor sites.
(§2) Tritiated SCH 23390 and tritiated spiperone (a potent D-2 ligand) were obtained as described in the Billard et al. reference supra and serially diluted in 0.05 M Tris buffer, pH 7.4, as required. A compound of the invention is diluted in 0.05 M Tris buffer, pH 7.4, as required.
(§3) Male Sprague-Dawley rats (200 to 250 g) from Charles River Breeding Laboratories, Mass. were used to obtain brain tissue. The rats were humanely sacrificed and their brains removed and placed on ice. Striatal tissue was excised, pooled, and homogenized (Brinkman Polytron, 10 sec) in 100 volumes (w/v) of ice cold 50 mM Tris buffer, pH 7.4 (at 25° C.). The homogenate was centrifuged at 20,000 xg for 10 min. The resultant pellet was rehomogenized in Tris buffer and centrifuged again. The final pellet was resuspended in 50 mM Tris buffer pH 7.4 containing 120 mM NaCl, 5 mM KCl, 2 mM CaCl2, and 1 mM MgCl2.
(§4) Polypropylene incubation tubes received 100 μl of the individual test compounds at various concentrations dissolved or suspended in 0.05 M Tris, pH 7.4 containing 4 mg/ml methylcellulose, 100 μl of a solution of ^3 H-SCH 23390 in Tris buffer (final reaction mixture concentration =0.3 nM) or 100 μl of a solution of 3H-spiperone in Tris buffer (final concentration =0.2 nM) and 800 μl of tissue suspension (ca. 3 mg/assay). Tubes were incubated at 37° C. for 15 minutes and rapidly vacuum filtered through Whatman GF/B filters and rinsed 4 times with 4 ml of ice cold 50 mM Tris buffer, pH 7.4. The filters were transferred to scintillation vials, equilibated with 10 ml of scintillant (Scintosol, Isolab, Inc.) for 16 hours at 25° C. and the radioactivity determined in a liquid scintillation counter. Ki values were determined as described by Billard et al. using the relationship Ki =IC50 /(1+([L]/KD)) wherein IC50 =concentration of test drug necessary to displace 50% of specifically bound ^3 H-Sch 23390, [L]=concentration of radioligand used in the assay, and KD =dissociation constant.

[2] = system: conditioned avoidance response (CAR); experiment: Conditioned avoidance suppression in rats (Rat CAR); assay type: in vivo; conditions: lowest dose that significantly (P<0.05) reduced avoidance responding, read-out: Rat CAR, minimal effective dose (MED)
Protocol: N. Y. Acad. Sci. 66, 740 (1957)}. A series of experiments was carried out to assess the ability of the compounds of this invention to suppress the conditioned avoidance response (CAR) in rats.
Rats were required to jump onto a platform located 6.75 inches (17.15 cm) above the grid floor of an experimental chamber in response to a 5-second tone to avoid a 10-second foot shock (0.6 ma). Each experimental session consisted of 20 such trials presented at 30-second intervals. A correct CAR is scored whenever the rat jumps onto the platform during the tone (prior to foot shock). An escape response is scored when the rat jumps onto the platform during a shock. A response failure is defined as the lack of an escape response during the 10-second shock period.
Groups of 6-8 rats were trained in two consecutive days (total of 40 trials). Rats that reached criterion on day 2 (correct CARs on 16 or more of the 20 trials) were treated with either a test drug or vehicle on day 3. Suppression of CAR was analyzed statistically using Student's t-test comparing the performances of drug-treated to vehicle-treated rats.

[3] = target: T2, D-2 receptor (Rattus norvegicus, UniProt P61169); experiment: Competitive inhibition assay vs. 3H-spiperone (D-2 receptor binding); parameters: species or system Male Sprague-Dawley rat (striatal tissue); conditions: rat striatal homogenate, 0.2 nM 3H-spiperone, pH 7.4, 37° C., 15 min
T2 construct: Striatal tissue was excised, pooled, and homogenized; tissue Charles River Breeding Laboratories, Mass; (animals); host or cells: striatum of male Sprague-Dawley rats, washed membrane pellet
T2 sequence (P61169 whole entry): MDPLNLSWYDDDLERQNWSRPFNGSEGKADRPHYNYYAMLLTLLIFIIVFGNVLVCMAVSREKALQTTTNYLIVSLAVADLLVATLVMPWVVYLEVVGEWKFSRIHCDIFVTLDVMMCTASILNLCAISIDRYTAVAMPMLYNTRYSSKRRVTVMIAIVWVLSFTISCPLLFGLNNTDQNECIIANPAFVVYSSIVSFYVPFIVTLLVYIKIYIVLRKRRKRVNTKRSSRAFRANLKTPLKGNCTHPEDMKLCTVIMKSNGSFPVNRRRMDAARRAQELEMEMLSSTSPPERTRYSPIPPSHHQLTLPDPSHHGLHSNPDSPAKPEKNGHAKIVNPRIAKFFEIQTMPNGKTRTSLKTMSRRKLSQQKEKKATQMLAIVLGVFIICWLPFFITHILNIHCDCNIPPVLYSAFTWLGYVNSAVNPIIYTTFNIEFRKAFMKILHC
Protocol: as §1, §2, §3, §4

[4] = rat striatal homogenate, 0.3 nM 3H-SCH 23390, pH 7.4, 37° C., 15 min, read-out: Ki vs. 3H-SCH 23390

| Structure (SMILES) | Ki [1] [nM] | minimal effective dose ([2]; po) [mg/kg] | minimal effective dose ([2]; sc) [mg/kg] | Ki [3] [nM] | Ki [1, 4] [nM] |
| --- | --- | --- | --- | --- | --- |
| COC1CN(C)CCc2cc(Cl)c(O)cc21 (centres unmarked) [Compound 1, 8-chloro-5-methoxy-3-methyl-2,3,4,5-tetrahydro-lH-3-benzazepine-7-ol] | 54 | > 30 | 1 | 5600 | – |
| CCOC1CN(C)CCc2cc(Cl)c(O)cc21 (centres unmarked) [Compound 2, 8-chloro-5-ethoxy-3-methyl-2,3,4,5-tetrahydro-lH-3-benzazepine-7-ol] | 34 | > 30 | 1 | 7720 | – |
| CCSC1CNCCc2cc(Cl)c(O)cc21 (centres unmarked) [Compound 3] | – | – | < 10 | 6500 | 380 |
| CN1CCc2cc(Cl)c(O)cc2C(Oc2ccccc2)C1 (centres unmarked) [Compound 4, 8-chloro-3-methyl-5-phenoxy-2,3,4,5-tetrahydro-lH-3-benzazepin-7-ol] | – | 10 | – | 610 | 83 |
| CN1CCc2cc(Cl)c(O)cc2C(Sc2ccccc2)C1 (centres unmarked) [Compound 5, 8-chloro-3-methyl-5-phenylthio-2,3,4,5-tetrahydro-lH-3-benzazepin-7-ol] | – | > 30 | > 30 | 402 | 33 |
| CN1CCc2cc(Cl)c(O)cc2C(N2CCCCC2)C1 (centres unmarked) [Compound 6, 8-chloro-3-methyl-5-(1-piperidinyl)-2,3,4,5-tetrahydro-lH-3-benzazepine-7-ol] | – | 30 | 3 | 7500 | 64 |
| CN1CCc2cc(Cl)c(O)cc2C(n2ccnc2)C1 (centres unmarked) [Compound 7] | – | > 30 | > 10 | – | – |
| CN1CCc2cc(Cl)c(O)cc2C(C2CCCCC2)C1 (centres unmarked) [Compound 8, 8-chloro-5-cyclohexyl-3-methyl-2,3,4,5-tetrahydro-lH-3-benzazepine-7-ol] | – | 30 | ≤ 1 | 570 | 10 |
| CN1CCc2cc(Cl)c(O)cc2C(OCC(F)(F)F)C1 (centres unmarked) [Compound 9, 8-chloro-5-(2,2,2-trifluoroethoxy)-3-methyl-2,3,4,5-tetrahydro-lH-3-benzazepine-7-ol] | – | > 30 | 1 | 14900 | 59 |
| CN1CCc2cc(Cl)c(O)cc2C(OCc2ccccc2)C1 (centres unmarked) [Compound 10, 8-chloro-5-benzyloxy-3-methyl-2,3,4,5-tetrahydro-lH-3-benzazepine-7-ol] | – | > 30 | 3 | 2300 | 30 |
| CN1CCc2cc(Cl)c(O)cc2C(OCCc2ccccc2)C1 (centres unmarked) [Compound 11, 8-chloro-5-(phenethyloxy)-3-methyl-2,3,4,5-tetrahydro-lH-3-benzazepine-7-ol] | – | > 30 | 1 | 1020 | 8 |
| CN1CCc2cc(Cl)c(O)cc2C(C2CCCC2)C1 (centres unmarked) [Compound 12] | – | > 30 | 1 | 1540 | 21 |
| CN1CCc2cc(Cl)c(O)cc2C(n2cccc2)C1 (centres unmarked) [Compound 13, 8-chloro-5-(1-pyrrolyl)-3-methyl-2,3,4,5-tetrahydro-lH-3-benzazepine-7-ol] | – | > 30 | 0.3 | 16100 | 11 |
| C=CCC1CN(C)CCc2cc(Cl)c(O)cc21 (centres unmarked) [Compound 14, 8-chloro-5-allyl-3-methyl-2,3,4,5-tetrahydro-lH-3-benzazepine-7-ol] | – | > 30 | 0.1 | 170 | 6 |
| CN1CCc2cc(Cl)c(O)cc2C2(CCCC2)C1 [Compound 15, 8-chloro-7-hydroxy-3-methyl-2,3,4,5-tetrahydrospiro[lH-3-benzazepine-5,5'-cyclopentane]] | 19 | > 30 | 1 | 860 | – |
| CCOC(=O)Oc1cc2c(cc1Cl)CCN(C)CC2C1CCCCC1 (centres unmarked) [Compound 16, 8-chloro-7-(ethoxy-formyloxy)-5-cyclohexyl-3-methyl-2,3,4,5-tetrahydro-lH-3-benzazepine] | – | > 30 | < 3 | 3330 | 133 |
| C=CCC1CN(C)CCc2cc(Cl)c(OC(=O)C(C)C)cc21 (centres unmarked) [Compound 17, 8-chloro-7-(isopropyl-formyloxy)-5-allyl-3-methyl-2,3,4,5-tetrahydro-lH-3-benzazepine] | – | > 30 | 0.3 | 3450 | 84 |
| C=CCC1CN(C)CCc2cc(Cl)c(OC(=O)COC)cc21 (centres unmarked) [Compound 18, 8-chloro-7-(methoxy-acetoxy)-5-allyl-3-methyl-2,3,4,5-tetrahydro-lH-3-benzazepine] | – | 100 | < 0.3 | 566 | 10.3 |
| CC(=O)Oc1cc2c(cc1Cl)CCN(C)CC2CC=C(C)C (centres unmarked) [Compound 19, 8-chloro-7-acetoxy-5-(3-methyl-2-butenyl)-3-methyl-2,3,4,5-tetrahydro-lH-3-benzazepine] | – | > 30 | < 1 | 955 | 17 |
| C=CCC1CN(C)CCc2cc(Cl)c(OCOC(=O)C(C)(C)C)cc21 (centres unmarked) [Compound 20, 8-chloro-7-(t-butyryloxy-methoxy)-5-allyl-3-methyl-2,3,4,5-tetrahydro-lH-3-benzazepine] | – | > 30 | 0.1 | 2620 | 240 |
| CN1CCc2cc(Cl)c(O)cc2C(C2C=CCCC2)C1 (centres unmarked) [HO CH3 2-cyclohexenyl H, 8-chloro-5-(2-cyclohexenyl)-3-methyl-2,3,4,5-tetrahydro-lH-3-benzazepine-7-ol] | – | – | – | 135 | 1.1 |
| CN(C)CCCC1CN(C)CCc2cc(Cl)c(O)cc21 (centres unmarked) [HO CH3 (CH2)3 N(CH3)2 H, 8-chloro-5-(N,N-dimethylaminopropyl)-3-methyl-2,3,4,5-tetrahydro-lH-3-benzazepine-7-ol] | – | – | – | > 100000 | 1100 |
| CN1CCc2cc(Cl)c(O)cc2C(=Cc2ccccc2)C1 [HO CH3 CHPh] | – | – | – | 705 | 73 |
| CCSC1CN(C)CCc2cc(Cl)c(O)cc21 (centres unmarked) [HO CH3 SC2 H5 H, 8-chloro-5-ethylthio-3-methyl-2,3,4,5-tetrahydro-lH-3-benzazepine-7-ol] | – | – | – | 2610 | 33 |
| CN1CCc2cc(Cl)c(O)cc2C(OC2CCCCC2)C1 (centres unmarked) [HO CH3 cyclohexyloxy H, 8-chloro-5-cyclohexyloxy-3-methyl-2,3,4,5-tetrahydro-lH-3-benzazepine-7-ol] | – | – | – | 10100 | 38 |
